# Laboratory results taken from patent US10688111B2, “Liquid formulations of compounds active at sulfonylurea receptors” (Biogen Chesapeake LLC, priority 2008, dated 2020).
# Legend:
# physchem = assay: physchem
# Protocol: The solubility of glibenclamide was tested in various solutions and at various pH.
# [1] = Glibenclamide solubility at various pH in PEG 300/ethanol/meglumine buffer (Table 2, FIG. 1); format: physicochemical; details: for solubility: aqueous with cosolvent or surfactant or cyclodextrin
# Protocol: The solubility of glibenclamide was measured at various pH levels in the presence of different amounts of the buffer meglumine in solutions containing 40% PEG 300, 10% ethanol, and 50% water. […] The pH of the meglumine buffer was adjusted down from pH 11 to the target pH range of between about pH 8 to about pH 10.
# [2] = Glibenclamide solubility in infusion fluids by HPLC, excess drug shaken 24 hours (Table 4); format: physicochemical; details: thermodynamic from solid, 24 hours ambient
# Protocol: The solubility of glibenclamide was determined by high pressure liquid chromatography (HPLC) in a variety of infusion fluids. Excess glibenclamide was shaken with the vehicle for 24 hours at ambient temperature and the glibenclamide content of the supernatant determined by HPLC.
# The following infusion vehicles were assessed in these experiments:
# 1.) 0.9% NaCl at the lowest end of the pH specification (pH 4.5) containing a 50-fold dilution of the PEG/ethanol/meglumine 10 mM pH 9.0 formulation.
# 2.) 0.9% NaCl at the lowest end of the pH specification (pH 4.5) containing a 50-fold dilution of the PEG/ethanol/diethanolamine 10 mM pH 9.0 formulation.
# 3.) 0.9% NaCl at the lowest end of the pH specification (pH 4.5) containing a 50-fold dilution of the PEG/ethanol/TRIS 10 mM pH 9.0 formulation.
# 4.) 0.9% NaCl at the lowest end of the pH specification (pH 4.5).
# 5.) 0.9% NaCl at the highest end of the pH specification (pH 7.0).
# 6.) 0.9% NaCl ‘as is’ (pH 5.8).
# 7.) 0.9% NaCl at the lowest end of the pH specification (pH 4.5) containing a 50-fold dilution of the PEG/ethanol formulation (without buffer or pH adjustment).
# 8.) 0.9% NaCl at the highest end of the pH specification (pH 7.0) containing a 50-fold dilution of the PEG/ethanol formulation (without buffer or pH adjustment).
smiles,measurement,setting,value
"COc1ccc(Cl)cc1C(=O)NCCc1ccc(S(=O)(=O)NC(=O)NC2CCCCC2)cc1 [Glibenclamide, N-p-(2-[5-Chloro-2-methoxybenzamido]ethyl) benzenesulfonyl-N′-cyclohexylurea]",solubility,"physchem; pH 5.3, aqueous buffer, Solubility",10 µg/mL
same,solubility,"physchem; pH 6.2, aqueous buffer, Solubility",10 µg/mL
same,solubility,"physchem; pH 6.6, water, Solubility",70 µg/mL
same,solubility,physchem; pH 6.9,60 µg/mL
same,solubility,"physchem; pH 6.9, aqueous with cosolvent or surfactant or cyclodextrin, Solubility",90 µg/mL
same,solubility,"physchem; pH 7.1, aqueous buffer, Solubility",10 µg/mL
same,solubility,"physchem; pH 7.2, aqueous with cosolvent or surfactant or cyclodextrin, Solubility",80 µg/mL
same,solubility,"physchem; pH 7.6, aqueous with cosolvent or surfactant or cyclodextrin, Solubility",600 µg/mL
same,solubility,"physchem; pH 7.7, aqueous with cosolvent or surfactant or cyclodextrin, Solubility",10 µg/mL
same,solubility,physchem; pH 9.7,860 µg/mL
same,solubility,"physchem; pH 9.7, aqueous buffer, Solubility",860 µg/mL
same,solubility,"physchem; pH 9.7, aqueous with cosolvent or surfactant or cyclodextrin, Solubility",18300 µg/mL
same,solubility,physchem; pH 9.8,11200 µg/mL
same,solubility,"physchem; pH 9.8, aqueous with cosolvent or surfactant or cyclodextrin, Solubility",14600 µg/mL
same,solubility,physchem; pH 10.1,2350 µg/mL
same,solubility,"physchem; pH 10.1, aqueous buffer, Solubility",2350 µg/mL
same,solubility,physchem; pH 10.5,15650 µg/mL
same,solubility,"physchem; pH 10.5, aqueous with cosolvent or surfactant or cyclodextrin, Solubility",13400 µg/mL
same,solubility,"physchem; pH 10.7, aqueous buffer, Solubility",8120 µg/mL
same,solubility,"physchem; pH 10.7, aqueous with cosolvent or surfactant or cyclodextrin, Solubility",13900 µg/mL
same,solubility change with pH (FIG. 1),"[1]; 40% PEG 300, 10% ethanol, 50% water, meglumine buffer, basic pH values greater than about pH 8",greatly increased
same,solubility,"[1]; PEG 300/ethanol/meglumine buffer solution, PEG 300/Ethanol/20 mM Meglumine 40%/10%/50% (final 10 mM), nominal pH 8.5, actual pH 5.4",100 µg/mL
same,solubility,"[1]; PEG 300/ethanol/meglumine buffer solution, PEG 300/Ethanol/20 mM Meglumine 40%/10%/50% (final 10 mM), nominal pH 9.0, actual pH 5.6",130 µg/mL
same,solubility,"[1]; PEG 300/ethanol/meglumine buffer solution, PEG 300/Ethanol/20 mM Meglumine 40%/10%/50% (final 10 mM), nominal pH 9.5, actual pH 6.4",120 µg/mL
same,solubility,"[1]; PEG 300/ethanol/meglumine buffer solution, PEG 300/Ethanol/100 mM Meglumine 40%/10%/50% (final 50 mM), nominal pH 9.5, actual pH 7.7",410 µg/mL
same,solubility,"[1]; PEG 300/ethanol/meglumine buffer solution, PEG 300/Ethanol/100 mM Meglumine 40%/10%/50% (final 50 mM), nominal pH 10.0, actual pH 8.8",2740 µg/mL
same,solubility,"[1]; 40% PEG 300, 10% ethanol, 50% water with meglumine buffer, nominal pH 9 (pH 8.8)",2700 µg/mL
same,solubility,"[1]; PEG 300/Ethanol/20 mM Meglumine 40%/10%/50% (final 10 mM), nominal pH 10.0, actual pH 6.9",980 µg/mL
same,solubility,"[1]; PEG 300/Ethanol/50 mM Meglumine 40%/10%/50% (final 25 mM), nominal pH 8.0, actual pH 5.2",160 µg/mL
same,solubility,"[1]; PEG 300/Ethanol/50 mM Meglumine 40%/10%/50% (final 25 mM), nominal pH 9.5, actual pH 6.6",90 µg/mL
same,solubility,"[1]; PEG 300/Ethanol/50 mM Meglumine 40%/10%/50% (final 25 mM), nominal pH 10.0, actual pH 7.8",360 µg/mL
same,solubility,"[1]; PEG 300/Ethanol/100 mM Meglumine 40%/10%/50% (final 50 mM), nominal pH 8.0, actual pH 5.3",90 µg/mL
same,solubility,"[1]; PEG 300/Ethanol/100 mM Meglumine 40%/10%/50% (final 50 mM), nominal pH 8.5, actual pH 5.5",100 µg/mL
same,solubility,"[1]; PEG 300/Ethanol/100 mM Meglumine 40%/10%/50% (final 50 mM), nominal pH 9.0, actual pH 6.2",100 µg/mL
same,solubility at 24 h,"[2]; 0.9% NaCl infusion fluid, pH 7.8, saline or isotonic, 0.9% NaCl 'as is' (pH 5.8), actual pH 7.80",150 µg/mL
same,solubility at 24 h,"[2]; 0.9% NaCl infusion fluid, saline or isotonic, 0.9% NaCl at pH 4.5, actual pH 7.72",80 µg/mL
same,solubility at 24 h,"[2]; 0.9% NaCl infusion fluid, saline or isotonic, 0.9% NaCl at pH 7.0, actual pH 7.75",120 µg/mL
same,solubility at 24 h,"[2]; pH 7.9, saline or isotonic, NaCl at pH 7.0 + PEG/EtOH, no buffer (50-fold dilution), actual pH 7.90",140 µg/mL
same,solubility at 24 h,"[2]; saline or isotonic, NaCl at pH 4.5 + PEG/EtOH, no buffer (50-fold dilution), actual pH 7.64",100 µg/mL
same,solubility at 24 h,"[2]; saline or isotonic, NaCl at pH 4.5 + PEG/EtOH/Diethanolamine 10 mM, pH 9.0 (50-fold dilution), actual pH 8.19",130 µg/mL
